The text below walks through data of patent US20220362386A1, “LIQUID COMPOSITIONS COMPRISING A LEVODOPA AMINO ACID CONJUGATE AND USES THEREOF” (NeuroDerm, Ltd., priority 2019, published 2022).

The conditions of series [1]: 0 weeks.
Procedure: (§5) It is noted that the recovery % compared the amount of any given material as measured at t=28 h (or any other presented value) compared to the amount of that material, at measured at t=0.
The nature of series [2]: Analytical stability of LD-Tyr/CD formulations by HPLC (Tables 42-45c). The conditions noted are these: for Analytical stability result (HPLC), t = 1 week / Analytical stability result (HPLC), t = 2 weeks: in mg/mL (unit assumed).
Procedure: as §5
Series [3] in a line: Protein binding, solid phase extraction (SPE) method. It is filed as in vitro ADME, human. The note with it: human, human plasma, 1.0E−05M, SPE sample preparation. The procedure: (§1) A solid phase extraction (SPE) method was used to prepare samples for several compounds in the plasma protein binding assay. The following SPE protocols were followed:
(§2) Sorbent: Waters Oasis MCX 96—well MicroElution Plate—Cat #186001830BA Sample: 200 μL of plasma spiked at 10 μM with test compound. Sample was diluted 1:1 with 4% phosphoric acid in water and mixed for 15 minutes 1) Place Oasis plate on vacuum manifold and set vacuum to 5″ Hg; 2) Condition with 200 μL methanol; 3) Equilibrate with 200 μL water; 4) Load dilute plasma sample; 5) Wash with 200 μL 2% formic acid in water; 6) Wash with 400 μL methanol; and 7) Elute with 100 μL 5% NH4OH in methanol.
(§3) Sorbent: Waters Oasis MAX 96-well MicroElution plate—Cat #186001829 Sample: 200 μL of plasma spiked at 10 μM with test compound. Sample was diluted 1:1 with 4% phosphoric acid in water and mixed for 15 minutes 1) Place Oasis plate on vacuum manifold and set vacuum to 5″ Hg; 2) Condition with 200 μL methanol; 3) Equilibrate with 200 μL water; 4) Load dilute plasma sample; 5) Wash with 200 μL 5% NH4OH in water; 6) Wash with 400 μL methanol; and 7) Elute with 100 μL 2% formic acid in methanol.

The subject of another series is human plasma. The series is described as above. It is filed as in vitro ADME. The note with it: 1.0E−05M; SPE sample preparation. The procedure: as §1, §2, §3
A short description of series [4]: Stability observation of the solubility solutions at 25° C. (visual inspection for precipitants). It is filed as physicochemical. The procedure: The volume of the solution in the bottle was adjusted to 5 ml, either by adding solvent, or be removing any residual solution, after which the bottle was tightly closed and left at 25° C. for stability observation. […] It is further noted that throughout this document, unless mentioned otherwise, the stability was measured using the manual visual inspection Bosch apparatus MIH DX, at a magnification of ×1.75.

A short description of a further series: physchem. It is filed as physicochemical. The procedure:
The volume of the solution in the bottle was adjusted to 5 ml, either by adding solvent, or be removing any residual solution, after which the bottle was tightly closed and left at 25° C. for stability observation. It is noted that throughout Example 4, the concentrations in the tables below were calculated taking into account the amount of solvent added or the solution removed, in which event, the calculations were performed regarding the 5 ml+(amount removed) as the volume of the solution. It is further noted that throughout this document, unless mentioned otherwise, the stability was measured using the manual visual inspection Bosch apparatus MIH DX, at a magnification of ×1.75.
The LD-Tyr free base, prepared according to Example 2, was added to a solvent, as detailed in Table 7 below, and neutralized by addition of NaOH. When maximum solubility was observed, the solution was filtered and then transferred to a bottle that was previously weighed and flushed with nitrogen. The volume of the solution in the bottle was adjusted to 5 ml, after which the bottle was tightly closed and left at 25° C. for stability observation.
When maximum solubility was observed, the solution was filtered and then transferred to a bottle that was previously weighed and flushed with nitrogen. The volume of the solution in the bottle was adjusted to 5 ml, after which the bottle was tightly closed and left at 25° C. for stability observation.
(§4) When maximum solubility was observed, the solution was filtered and then transferred to a bottle that was previously weighed and flushed with nitrogen. The volume of the solution in the bottle was adjusted to 5 ml, after which the bottle was tightly closed and stored at 25° C. for stability observation.
as §4
LD-Lys TFA salt, prepared according to Example 1, and which comprises two equivalents of TFA, was added to a solvent, as detailed in Table 11 below, and neutralized by addition of NaOH. When maximum solubility was observed, the solution was filtered and then transferred to a bottle that was previously weighed and flushed with nitrogen. The volume of the solution in the bottle was adjusted to 5 ml, after which the bottle was tightly closed and stored at 25° C. for stability observation.
As detailed above regarding other solutions, with the LD-Tyr free base when maximum solubility was observed, the solution was filtered and then transferred to a bottle that was previously weighed and flushed with nitrogen. The volume of the solution in the bottle was adjusted to 5 ml, after which the bottle was tightly closed and left at 25° C. for stability observation.
LD-Lys HCl salt, prepared according to Example 3, was added to a solvent, as detailed in Table 13 below, and neutralized by the addition of NaOH. When maximum solubility was observed, the solution was filtered and then transferred to a bottle that was previously weighed and flushed with nitrogen. The volume of the solution in the bottle was adjusted to 5 ml, after which the bottle was tightly closed and left at 25° C. for stability observation.

Series [5] in a line: Human blood stability test. It is filed as in vitro ADME. The conditions noted are these: slope of the percentage decrease of remaining compound; substrate 10 μM; 0-60 minutes. The procedure:
The stability of several LDAA compounds in human blood was tested. The substrate concentration was 10 μM and the incubation time 0, 5, 15, 30 and 60 minutes.
The results are described in Table 19, wherein the results describe the Ke, i.e., the slope of the percentage decrease of the remaining amount of the compound, measured at each of the above time points, such that the higher the Ke the faster the metabolism.

The nature of series [6]: Human liver S9 stability test. It is filed as in vitro ADME. The note with it: slope of the percentage decrease of remaining compound; substrate 10 μM; S9 protein 0.2 mg/mL; 0-60 minutes. As to the method:
The stability of several LDAA compounds, in their TFA salt form, in human liver S9 was tested using commercially available liver S9. The substrate concentration was 10 μM, the S9 protein concentration was 0.2 mg/mL, and the incubation time 0, 5, 15, 30 and 60 minutes.
The results are described in Table 18, wherein the results describe the Ke, i.e., the slope of the percentage decrease of the remaining amount of the compound, measured at each of the above time points, such that the higher the Ke the faster the metabolism.

Where [7] appears, read: NB 144-4 formulation, Storage temp. 2-8° C.
[8] abbreviates: NB 144-4 formulation, Storage temp. 25° C.
Setting [9] is: NB 144-4 formulation, Storage temp. 40° C.
Setting [10] is: NB 144-32 (F1), 37% LD-Tyr/0.5% CD.
Setting [11] is: NB 144-34 (F2), 44% LD-Tyr/0.5% CD.
The mark [12] stands for this setting: NB 144-39 (F3), 30% LD-Tyr/0.5% CD.
Setting [13] is: 0.75% CD solution, pH 8.5, 240 mg/ml salt.

Structures can show the parent of a compound that is named as a salt. Where two headings read alike, the source gives them in different places. Non-standard residues stand in square brackets, D forms with d. Residues, ends and D or L forms follow the SMILES beside them. Dopa = N[C@@H](Cc1ccc(O)c(O)c1)C(=O)O

In the case of `C[C@@](Cc1ccc(O)c(O)c1)(NN)C(=O)O` [CD], the “Analytical stability result (HPLC), t = 0” value in series [1] worked out at 7.37; in series [2] (NB 144-4 formulation (30% LD-Tyr/0.75% CD), Storage temp. 2-8° C.), 7.37; in series [2] (setting [9]), 7.37. Moreover, the “% retention, t = 1 week” value in series [2] (setting [7]) was 99.9%; in series [2] (setting [8]), 99.3%; in series [2] (setting [9]) it was 98.5%. In addition, the “Analytical stability result (HPLC), t = 1 week” value was 7.36 in series [2] (setting [7]), 7.32 in series [2] (setting [8]) and 7.26 in series [2] (setting [9]). In addition, the “% retention, t = 2 weeks” value in series [2] (setting [7]) is 99.1%; in series [2] (setting [8]), 100.5%. Further, the “Analytical stability result (HPLC), t = 2 weeks” value in series [2] (setting [7]) is listed as 7.30; in series [2] (setting [8]), 7.41. Further, the results for the “Concentration (HPLC), t = 0” value in series [2] (setting [10]), in series [2] (setting [11]) and in series [2] (setting [12]) were 4.78, 4.84 and 4.86, respectively. For the same molecule, the “Concentration (HPLC), t = 28 h at 32° C.” value in series [2] (setting [10]) was found to be 4.77; in series [2] (setting [11]), 4.78; in series [2] (setting [12]) it was 4.74.

In the case of `N[C@@H](Cc1ccc(O)c(O)c1)C(=O)N[C@@H](CCC(=O)O)C(=O)O` [LD-Glu TFA salt, Levodopa Glutamic Acid TFA Salt] (H-[Dopa]-Glu-OH), the recovery at 10 μM in series [3] (read-out: % Recovery 1st) was determined as 110%. The recovery at 10 μM in series [3] (read-out: % Recovery 2nd) amounted to 115%. Also, in series [3] (read-out: % Recovery Mean), the recovery at 10 μM is 112%. In the series with human plasma, the “% Protein Bound 1st” value is reported as 36.6%, the “% Protein Bound 2nd” value worked out at 49.4% and the “% Protein Bound Mean” value is on record as 43%.

For `NCCCC[C@H](NC(=O)[C@@H](N)Cc1ccc(O)c(O)c1)C(=O)O` [LD-Lys HCl salt] (H-[Dopa]-Lys-OH), the Stability entry in series [4] (setting [13]) is “Precipitated* (precipitated within 12 hours at room temperature)”; in series [4] (WFI, pH 6.51, 350 mg/ml salt), “Stable (physically stable for at least 12 hours)”. Besides, the Appearance result was “Clear” in “physchem” (0.75% CD solution, pH 6.46, 240 mg/ml salt); “Clear” in the series “physchem” (setting [13]); “Clear” in the series “physchem” (WFI, pH 6.51, 350 mg/ml salt). In addition, the solubility thermodynamic in “physchem” (25 °C, aqueous buffer, thermodynamic from solid, solvent WFI, pH 6.51, HCl counter-ion, read-out: LD-Lys TFA salt concentration) turned out to be 350 mg/mL. The “LD-Lys free base Concentration” value stood at 200 mg/mL in “physchem” (solvent 0.75% CD solution, pH 6.46); 200 mg/mL in the series “physchem” (solvent 0.75% CD solution, pH 8.5); 290 mg/mL in the series “physchem” (solvent WFI, pH 6.51). Also, the “LD-Lys TFA salt concentration” value in “physchem” (solvent 0.75% CD solution, pH 6.46, HCl counter-ion) stood at 240 mg/mL; in the series “physchem” (solvent 0.75% CD solution, pH 8.5, HCl counter-ion) it was 240 mg/mL.

`NC(=O)[C@@H](N)Cc1ccc(O)c(O)c1` [LDA (levodopa amide), levodopa amide, reference compound]: the Ke is reported as 0.0149 in series [5] and −0.0008 in series [6].
